Results from patent US20160166581A1 (priority 2014, published 2016).
Where “and” joins values, the source holds several entries; their conditions need not be identical. Identical values can stand only once.

Assays:
[1] = system: obese domestic cats with diabetes
Protocol: Five obese domestic cats with diabetes (average weight 14.2 lbs.) are on glargine insulin for glycemic control. […] All cats are being treated with glargine insulin in bid dosing schedule. […] Over a 14 day period morning blood glucose levels (prior to feeding) are recorded.

[2] = system: feline diabetic subjects; test: Glucose Tolerance Test/Felines (ipGTT); type: in vivo, cat
Protocol: Glucose Tolerance Test/Felines. Four feline diabetic subjects (male, age 5-7 years) with newly diagnosed DM (diabetes). […] These 4 cats are subjected to intraperitoneal injection of 2 grams/kg glucose. (ipGTT). Blood glucose levels are obtained via Cephalic iv. catheter at 30 and 60 minutes.

[3] = system: cats with stage 3 and 4 renal disease; test: Feline renal disease, serum creatinine pre and post treatment; type: in vivo, cat; set-up: Serum creatinine post treatment: unit not given here
Source text: This example measures feline renal disease. […] The average weight of the domestic cats was approximately 6 lbs.

[4] = system: horses with black walnut extract induced laminitis; test: Black walnut extract induced laminitis, treatment with donepezil; type: in vivo, horse
Protocol: Three domestic horses, average age 26, are corralled in close proximity to a Black Walnut tree with exposed roots and debris from black walnuts shells, including leaves. The weight of the horses is 1100-1200 lbs. Horses are quartered in a 24×36 square foot area with a Black Walnut tree within the confined area.
The horses are evaluated continuously after 6 hours of exposure to remove them from exposure to the black walnut extract once symptoms occur.
Subsequent doses are 50 mg on Day #3-7. Horses are given Timothy hay and water, but no other medicinal or mechanical interventions.
The same 3 horses are used in similar exposure design, as in the original experiment to induce laminitis. […] The dose is tapered to 50 mg orally on Days #3 through #7.

[5] = 4 cats, 1.25 mg daily for 4 weeks
[6] = individual cats #1-#4, donepezil 1.25 mg daily for 4 weeks
[7] = individual cats #1-#4, donepezil 1.25 mg daily for 4 weeks, 2 gm/kg glucose ip
[8] = after repeat exposure and treatment
[9] = first exposure, 3 horses, 100 mg orally Day 1-2, 50 mg Day 3-7
[10] = repeat exposure, same 3 horses, 100 mg Day 1-2, 50 mg Days 3-7

## COc1cc2c(cc1OC)C(=O)C(CC1CCN(Cc3ccccc3)CC1)C2 (centres unmarked) [donepezil]
[1]; #2 Cat, from 3 u. bid, secondary to low morning blood glucose
  Dose of glargine insulin decreased to: 2 units
[1]; individual diabetic cats #1-#5 on glargine insulin, 1.25 mg donepezil orally daily, 14 day period
  Morning blood glucose levels (prior to feeding) during treatment: 88 to 113 mg/dL and 105 to 128 mg/dL and 96 to 117 mg/dL
[2]; [5]
  30 minutes blood glucose levels on average less than before treatment: approximately 24%
  60 minute GTT on average less than without treatment: 42%
[2]; 4 weeks prior to ipGTT testing, versus same subjects before treatment
  Glucose tolerance (in words): improved glucose tolerance
[2]; [6]
  Decrease of 30 minute ipGTT blood glucose versus before treatment: 29% and 22% (2×) and 25%
  Decrease of 60 minute ipGTT blood glucose versus before treatment: 42% and 39% and 41% and 46%
[2]; [7]
  Blood glucose at 30 minutes in ipGTT: 269 mg/dL and 292 mg/dL and 278 mg/dL and 304 mg/dL
  Blood glucose at 60 minutes in ipGTT: 152 mg/dL and 164 mg/dL and 145 mg/dL and 147 mg/dL
[3]; donepezil 2.5 mg daily over 4 week period
  Improvement of creatinine in six cats: approximately 56%
[3]; individual cats 1-6, stage 3 or 4 renal disease, donepezil 2.5 mg daily for 4 weeks
  Serum creatinine post treatment: 1.8 and 2.6 and 2.0 and 1.9 and 2.5 and 2.3
[3]; individual cats 1-6, donepezil 2.5 mg daily for 4 weeks
  Decrease of serum creatinine post versus pre treatment: 49% and 53% and 45% and 60% and 65% and 62%
[4]; [8]
  Gait (horse movements): no abnormalities
  Lasting lameness or constitutional symptoms: No observable lasting lameness or constitutional symptoms
[4]; first exposure, 3 horses
  Systemic symptoms after day #7: No systemic symptoms are noted
[4]; [9]
  All subjects appear normal by: ≤ 7 days
  Normal activity noted as early as: 5 days
  Warmth, posturing and trembling resolved by: ≤ 3 days
[4]; [10]
  Resolution of symptoms and normal movements completed by: ≤ 7 days
  Resolution of symptoms and normal movements observed at: 5 days
